From patent US10556860B2, “hTERT modulators and methods of use” (Arizona Board of Regents on Behalf of the University of …, priority 2015, dated 2020)

Columns and labels:
[1] = tested on: pGL3 constructs that contain the G124A, G124/125A, G138/139A, and G146A mutations; assay: Luciferase assay, somatic mutant constructs in MCF7 cells; type: cell-based, human; settings: 24 h
Procedure: Luciferase assay. From gDNA extracted from HeLa cells, the hTERT core promoter region, including −350 bp to +12 from the transcription start site, was amplified using a pair of primers, including KpnI and NheI restriction sites, for cloning of pGL3-hTERT with WT promoter sequence. Mutant constructs were generated by PCR-based site-directed mutagenesis. The sequence of each construct was confirmed by sequencing analysis. MCF7 cells in 24-well plate were transfected with 200 ng of pGL3 construct and 5 ng of pRL-TK by Fugene® HD Transfection Reagent and then incubated for 6 h. Media were replaced by fresh ones and the cells were treated with GTC365 or BRACO-19. The same volume of DMSO served as a control. After 24 h of incubation, cells were lysed by passive lysis buffer (Promega) and subjected to dual-luciferase assay (Promega) using an FB12 luminometer. The ratio of firefly to renilla luciferase activity was normalized to the DMSO to obtain the relative luciferase activity.
The effect of GTC365 on the somatic mutants in the hTERT promoter region was also examined by transfecting cells with pGL3 constructs that contain the G124A, G124/125A, G138/139A, and G146A mutations.

[2] = tested on: MCF7 cells; assay: Cell cycle analysis by PI staining; type: cell-based, human; settings: 48 h treatment
Procedure: Cell cycle analysis by PI staining. MCF7 cells were treated with GTC365 for 48 h. Cells were trypsinized and washed with cold D-PBS. Cell pellets were subjected to 70% EtOH fixation at −20° C. overnight. Cells were incubated with RNase A and PI for 3 h at 37° C. and then kept in ice before FACS analysis (FACScanto II, BD Biosciences, San Jose, Calif.).
(§1) Since knockdown of hTERT arrests the cell cycle in the G0/G1 phase, the effects of GTC365 on the cell cycle were evaluated. GTC365 increased the population of the G0/G1 (from 57% to 71%) and G2/M phases (from 10% to 19%), whereas the S-phase was decreased (from 33% to 10%) in a dose-dependent manner with 48 h treatment. […] It is known that various anticancer drugs induce SLP in different cancer cells, leading to mitotic catastrophe as well as apoptotic cell death. Doxorubicin, one of the representative anticancer drugs, induced apoptosis and mitotic catastrophe accompanied by multiple nuclei with SLP. GTC365, like doxorubicin, appears to arrest cell proliferation and induce cell death, apoptosis, or mitotic catastrophe through downregulation of hTERT.

[3] = tested on: G146A mutant hTERT G-quadruplex; assay: CD melting (Tm), G146A mutant; type: binding, human; settings: 2 equiv
Procedure: Circular dichroism. Oligomers of WT, G124A, G124/125A, G138/139A and G146A were synthesized and HPSF-purified by MGW Operon, Inc. For CD analysis, oligomers (5 μM) in a buffer containing 10 mM Tris-HCl (pH 7.5) and 140 mM KCl were annealed. For the CD analysis of the complex of oligomers and compounds, oligomers (5 μM) in a buffer containing 10 mM Tris-HCl (pH 7.5) and 5 mM KCl for GTC365 or 1 mM KCl for BRACO-19 were annealed. Oligomers and GTC365 or BRACO-19 were incubated overnight at room temperature. For the full-length of C-rich strand, the oligomer in a buffer of 10 mM Na cacodylate (pH 6.6) was annealed and then incubated with GTC365 overnight. CD analysis was conducted on a Jasco 810 spectropolarimeter (Jasco, Easton, Md.) using a quartz cell with 1 mm of path length, 1 nm of band width, and 1 s of response time for spectra at 20° C. Melting curves for the determination of Tm were obtained by recording ellipticity at 262 nm with increasing temperatures from 25° C. to 95° C. at a rate of 1.6° C./min. Tm of the C-rich strand with GTC365 was obtained from the CD signal at 286 nm within 10-60° C.
CD and DMS footprinting analyses were conducted to characterize the binding of GTC365 and BRACO-19 to the 5-12 G-quadruplex. […] To verify the effects of compounds on the thermal stability of the WT and the mutant G-quadruplexes, Tms were determined by CD. […]

[4] = tested on: caspase-3; assay: Caspase assay in MCF7 cells; type: cell-based, human; settings: 0.5-1 μM, 48 h, relative to DMSO
Procedure: Caspase assay. MCF7 cells in a 6-well plate were treated with GTC365 for 48 h. The caspase-3 assay was conducted using an Apoalert Caspase 3 Fluorescent Assay Kit (Clontech) with DEVD-AFC as a substrate of capase-3 following the manufacturer's instruction. Fluorescence intensity of released AFC was measured using a BioTek Synergy HT with excitation at 400 nm and emission at 505 nm. The relative caspase-3 activity compared to the DMSO was obtained.
Indeed at 0.5-1 μM, the BAX/BCL2 ratio was increased by over 2-fold and the capase-3 activity was increased by 47% (FIGS. 11 and 12).

[5] = tested on: MCF7 cells; assay: Counting of live cells treated with GTC365; type: cell-based, human; settings: low dose, nine days
Procedure: Counting of live cells treated with GTC365. MCF7 cells were treated with DMSO or 0.5 μM of GTC365. Cells were trypsinized and then subjected to trypan blue exclusion staining for counting of live cells using microscopy every three days. Afterward, 70% of cells were recultured with fresh media and DMSO or GTC365. Relative cell numbers compared to the DMSO were obtained.
as §1

## N=C(N)NCCCS(=O)(=O)Nc1ccc(Nc2c3ccccc3nc3cc([N+](=O)[O-])ccc23)cc1 [GTC365]
[1]
  luciferase activity of the mutants: decreased luciferase activity of the mutants in a dose-dependent manner
[2]; from 10% without compound
  population in G2/M phase: 19%
[2]; from 33% without compound
  population in S-phase: 10%
[2]; from 57% without compound
  population in G0/G1 phase: 71%
[3]
  Tm more increased compared to the WT: 6-7 °C
[4]
  increase of caspase-3 activity: 47%
[5]
  cell death of cells showing SLP: underwent cell death
